Laboratory results as given in BindingDB's records for doi:10.1021/jm7014149 (Vu University Amsterdam, 2008).

Columns and labels:
Conditions in all cases: pH 7.4; 25 °C
Histamine H4 receptor = Histamine H4 receptor (Homo sapiens, UniProt Q9H3N8); assay: H4R Radioligand Binding Assay
Procedure: (§1) Ligand displacement assays were performed on CHO cells membranes expressing hH4R. Retained radioactivity was determined by liquid scintillation counting. Nonspecific binding was determined in the presence of 10 uM histamine. The Ki values were calculated based on an experimentally determined appropriate Kd value according to Cheng and Prusoff.

Histamine H3 receptor [1] = target: T1, Histamine H3 receptor (Homo sapiens, UniProt Q9Y5N1); assay: Radioligand Binding Assay and Functional [35S]GTP-gamma-S Binding Assay
Procedure: as §1, with “hH3R.” for “hH4R.”, “1” for “10”, “thioperamide.” for “histamine.”, “Prusoff. EC50 is a measure of functional property of compound on [35S]GTP-gamma-S binding to membranes expressing H3R receptors.” for “Prusoff.”

Histamine H3 receptor [2] = target: T1, Histamine H3 receptor; assay: H3R Radioligand Binding Assay

T1 sequence (Q9Y5N1 whole entry): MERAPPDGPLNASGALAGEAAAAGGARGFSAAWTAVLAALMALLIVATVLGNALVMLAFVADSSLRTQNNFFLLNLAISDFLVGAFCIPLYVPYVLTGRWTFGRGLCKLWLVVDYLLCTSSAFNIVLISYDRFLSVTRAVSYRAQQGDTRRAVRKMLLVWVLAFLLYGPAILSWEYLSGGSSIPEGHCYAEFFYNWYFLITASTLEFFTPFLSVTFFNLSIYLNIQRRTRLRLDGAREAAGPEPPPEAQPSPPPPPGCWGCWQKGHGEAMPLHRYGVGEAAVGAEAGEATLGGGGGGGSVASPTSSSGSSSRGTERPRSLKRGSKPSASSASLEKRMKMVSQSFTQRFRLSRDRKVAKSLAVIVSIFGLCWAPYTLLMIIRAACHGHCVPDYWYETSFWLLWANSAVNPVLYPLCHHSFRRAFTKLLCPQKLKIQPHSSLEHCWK
Sequence of Histamine H4 receptor (Q9H3N8 whole entry): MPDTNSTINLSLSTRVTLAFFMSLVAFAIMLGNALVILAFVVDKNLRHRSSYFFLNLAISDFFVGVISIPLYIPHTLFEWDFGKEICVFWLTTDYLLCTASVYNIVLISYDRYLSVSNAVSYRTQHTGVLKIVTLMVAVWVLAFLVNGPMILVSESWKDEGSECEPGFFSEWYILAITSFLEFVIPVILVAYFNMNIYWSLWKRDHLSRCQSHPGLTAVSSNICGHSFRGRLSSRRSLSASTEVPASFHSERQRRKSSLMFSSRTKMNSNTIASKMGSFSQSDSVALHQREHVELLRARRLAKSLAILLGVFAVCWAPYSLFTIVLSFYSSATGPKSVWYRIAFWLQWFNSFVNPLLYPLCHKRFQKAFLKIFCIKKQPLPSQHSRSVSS

| SMILES | Ki (Histamine H4 receptor) [nM] | Ki (Histamine H3 receptor [1]) [nM] | Ki (Histamine H3 receptor [2]) [nM] |
| --- | --- | --- | --- |
| CC(C)(C)CC(=O)c1cccc(Cc2cnc[nH]2)c1 [1-[3-(1H-imidazol-4-ylmethyl)phenyl]-3,3-dimethylbutan-1-one] | 6 |  |  |
| CC1CC(C)(C)N=C(c2cccc(Cc3c[nH]cn3)c2)O1 (stereo unspecified) [2-[3-(1H-imidazol-4-ylmethyl)phenyl]-4,4,6-trimethyl-5,6-dihydro-4H-1,3-oxazine] |  | 1 |  |
| C(#Cc1cccc(Cc2cnc[nH]2)c1)c1ccccc1 [4-{[3-(2-phenylethynyl)phenyl]methyl}-1H-imidazole] |  |  | 2 |
| CC(C)(C)C#Cc1cccc(Cc2c[nH]cn2)c1 [4-{[3-(3,3-dimethylbut-1-yn-1-yl)phenyl]methyl}-1H-imidazole] | 6 | 4 |  |
| CCCC#Cc1cccc(Cc2c[nH]cn2)c1 [4-{[3-(pent-1-yn-1-yl)phenyl]methyl}-1H-imidazole] |  |  | 3 |
